Assay results taken from article PMC7662639, “Synthesis and Evaluation of PEG-PR for Water Flux Correction in an In Situ Rat Perfusion Model” (Molecules, 2020).
Like-named read-outs stand apart in the source and are kept apart here. One block for each compound: values may come before it.

Legend:
[1] = Stability of markers and model drugs in Krebs–Ringer buffer (shaker bath, 37 °C, 120 min); assay type: physicochemical; settings: for Ending (120 min) Conc. / Initial Conc.: 37 °C shaker bath, mean ± SD, n = 3; for Initial Conc.: start of experiment; for Percentage of concentration change: (Initial Conc. - Ending Conc.) / Initial Conc., 37 °C; for Ending (120 min) Conc. / Percentage of concentration change: 120 min
Method: At the beginning and end (120 min) of the experiment, perfusion solution samples (0.4 mL) were acquired and centrifuged at 12,000 rpm for 10 min to determine the concentration changes of all compounds by HPLC analysis.
Table S1. Concentration changes of all compounds before and after the shaker bath
experiment. Data are shown as mean ± SD, n = 3.
Initial Ending Percentage of
Compound (120 min) concentration
As/Ai Conc. (μM) As/Ai Conc. (μM) change
As: HPLC peak area of compound .
Ai: HPLC peak area of internal standard .
Percentage of concentration change: (Initial Conc. -Ending Conc.) / Initial Conc.
Figure S7. Calibration line of PR (MW = 354) in Krebs–Ringer buffer.
(1 picture or pasted object on this page, not shown here)

[2] = parameters: method as in ref 39 (Ruiz-Picazo et al. 2017); settings: Doluisio method, ref 39 (Ruiz-Picazo et al. 2017), cited from earlier work
[3] = Recirculation intestinal perfusion method, Peff of model drugs with water flux corrected by marker; assay type: in vivo, rat
Method: A male rat weighing about 200 g was anesthetized and then fixed on a plate heated by a lamp at 37 °C. Through careful operation, two glass tubs were tightly secured on both ends of the intestinal segment using silk sutures. The Krebs–Ringer buffer was injected into the gut from the head end of the intestinal segment with a syringe until the outflow was clear. The intestine was then covered with cotton gauze wetted with 37 °C Krebs–Ringer buffer to maintain intestinal integrity and activity. The peristaltic pump and donor chamber (syringe) were connected with two catheters ligated onto the two abovementioned glass tubs. The intestinal segments were placed carefully back into the rat abdomen to avoid interference with blood circulation. […] After stabilizing the whole system for 10 min with the perfusion solution (peristaltic pump, flow: 5 mL/min), the initial sample (0.4 mL, C’0) was collected from the donor chamber, and the equal perfusion solution with the model drug (100 μM, C0) was added into the donor chamber. Samples (0.4 mL, C’t and Ce) were then collected every 10 min for 60 min. Finally, the length of the perfused intestinal segment was precisely measured at the end of the experiment.
Internal standard solution (cresol red, 600 μg/mL) was added into the 300-μL sample solution and vortexed for 30 s. Then, 600 μL of […] was added, and the samples were vortexed for 2 min. After homogeneous mixing, the mixture was centrifuged at 10,000 rpm for 10 min. Finally, the 20-μL treated supernatant was subjected to detection by HPLC.
Thus, it was necessary to correct the volume of the perfusion solution during the experiment. In this work, the volumes of the perfused solutions (Vt) were calculated from the experimental concentrations of the markers (C’t) as (4) V0=C^′V^′/C0′ (5) Vt=(V0−0.4)Ct−1′+0.4C^′/Ct′ (t=1,2,3…).
The corrected drug concentration (Ct) was calculated as (6) Ct=CeVt/V0 where Ct represents the concentration of the compound corrected by the marker at time t, and Ce represents the experimental drug concentration value.
The apparent absorption rate coefficients (ka) were obtained by the equation of luminal corrected concentration versus time:(7) Ct=C0×e^−ka·t.
The Peff value was obtained from ka using the following equation, where R is the effective radius of the intestinal segment:(8) Peff=Ka·R/2.

[4] = after 8 h, rat perfusion experiments; cited from earlier work
[5] = parameters: method as in ref 21 (Tugcu-Demiroz et al. 2014); settings: Doluisio technique; ref 21 (Tugcu-Demiroz et al. 2014); cited from earlier work
[6] = Water flux (Jwater) corrected by marker in the recirculation perfusion model; assay type: in vivo, rat; settings: 60–120 min, marker 56 μM, mean ± SD, n = 6
Method: The effective intestinal membrane permeability (Peff) of each model drug was surveyed using the recirculation intestinal perfusion method, as previously mentioned. A male rat weighing about 200 g was anesthetized and then fixed on a plate heated by a lamp at 37 °C. Through careful operation, two glass tubs were tightly secured on both ends of the intestinal segment using silk sutures. The Krebs–Ringer buffer was injected into the gut from the head end of the intestinal segment with a syringe until the outflow was clear. The intestine was then covered with cotton gauze wetted with 37 °C Krebs–Ringer buffer to maintain intestinal integrity and activity. The peristaltic pump and donor chamber (syringe) were connected with two catheters ligated onto the two abovementioned glass tubs. […] Finally, the length of the perfused intestinal segment was precisely measured at the end of the experiment.
As previously mentioned, the water flux through the membrane due to water absorption and secretion was of such significance that it could have influence on the accuracy of the experimental results. […] In this work, the volumes of the perfused solutions (Vt) were calculated from the experimental concentrations of the markers (C’t) as (4) V0=C^′V^′/C0′ (5) Vt=(V0−0.4)Ct−1′+0.4C^′/Ct′ (t=1,2,3…).
Jwater corrected by the marker was calculated using the following equation:(9) Jwater=d(V0−Vt)/dt (t=1,2,3…).

[7] = parameters: method as in ref 22 (Sutton et al. 2001); settings: SPIP; ref 22 (Sutton et al. 2001); cited from earlier work
[8] = Everted gut sac (EGS) permeability; assay type: in vitro ADME, rat
Method: Briefly, the male Wistar rats were fasted for 1 day with access to only double-distilled water and then anesthetized with ether. Then, the duodenum, jejunum, ileum, and colon (10–15 cm) were cut out and preserved in cold Krebs–Ringer buffer. After the intestinal residue was removed, the intestinal segments were everted by a glass rod and ligated onto the appropriate glass tube. […] Then, 0.4 mL of receiver fluid was collected from the everted intestinal segments, and an equal blank Krebs–Ringer buffer was replenished every 15 min during the experiment.
An internal standard (cresol red 100 μg/mL) was added to every 300-μL intestinal fluid sample. The mixture was vortexed for 30 s and dried under nitrogen blowing at 40 °C. The residue was redissolved in 150-μL methanol and vortexed for 30 s. The supernatant was then subjected to detection by HPLC after centrifuging at 10,000 rpm for 10 min.

[9] = rat complete small intestine, water flux corrected by PEG4k-PR, mean ± SD, n = 3
[10] = rat complete small intestine, water flux corrected by PEG5k-PR, mean ± SD, n = 3
[11] = rat complete small intestine, water flux corrected by PR, mean ± SD, n = 3

- Ending (120 min) Conc. [1]: 105.93 ± 0.61 µM
- Initial Conc. [1]: 105.19 ± 0.96 µM
- Percentage of concentration change [1]: 0.75%
- Peff ([3]; colon, corrected by PEG5k-PR): 3.3e-05 cm/s
- Peff ([3]; ileum, corrected by PEG5k-PR): 2.3e-05 cm/s
- Peff ([3]; jejunum, corrected by PEG5k-PR): 2.6e-05 cm/s
- Peff [3, 9]: 1.06 ± 0.24 ×10^−5 cm/s
- Peff [3, 10]: 1.38 ± 0.34 ×10^−5 cm/s
- Peff [3, 11]: 0.49 ± 0.10 ×10^−5 cm/s
Compound: CC(C)NCC(O)COc1ccc(CC(N)=O)cc1 (stereo not drawn) [Atenolol]
- Peff ([2]; colon): 21.1 ×10⁻⁶ cm/s
- Peff ([2]; ileum): 16.3 ×10⁻⁶ cm/s
- Peff ([2]; jejunum): 22.7 ×10⁻⁶ cm/s

- Ending (120 min) Conc. [1]: 102.12 ± 0.58 µM
- Initial Conc. [1]: 103.62 ± 2.29 µM
- Percentage of concentration change [1]: 1.46%
- Peff ([3]; colon, corrected by PEG5k-PR): 0.000102 cm/s
- Peff ([3]; ileum, corrected by PEG5k-PR): 9.4e-05 cm/s
- Peff ([3]; jejunum, corrected by PEG5k-PR): 0.000107 cm/s
- Peff [3, 9]: 5.06 ± 0.57 ×10^−5 cm/s
- Peff [3, 10]: 5.29 ± 1.49 ×10^−5 cm/s
- Peff [3, 11]: 5.11 ± 0.85 ×10^−5 cm/s
Compound: COCCc1ccc(OCC(O)CNC(C)C)cc1 (stereo not drawn) [Metoprolol]

Compound: Phenol red [PR]
- Ending (120 min) Conc. [1]: 56.11 ± 1.57 µM
- Initial Conc. [1]: 56.90 ± 1.10 µM
- Percentage of concentration change [1]: 1.38%
- urinary recovery [4]: about 4%
- water flux [5]: 55 µL/cm/h
- Jwater (water flux) corrected by the marker [6]: 88.7 ± 37.9 µL/cm/h
- average corrected water flux [7]: 26.8 ± 49.2 µL/cm/h
- cumulative permeable percentage ([8]; 56 μM, all intestinal segments): 3–5%
- cumulative permeable percentage at 112 μM relative to 28 μM ([8]; colon): twice as large
- Papp ([8]; colon, 28 μM): 4.07 ± 1.33 ×10^−6 cm/s
- W (cumulative permeable percentage) ([8]; colon, 28 μM): 2.50 ± 0.82%
- Papp ([8]; colon, 56 μM): 5.83 ± 1.9 ×10^−6 cm/s
- W (cumulative permeable percentage) ([8]; colon, 56 μM): 3.36 ± 0.79%
- Papp ([8]; colon, 112 μM): 8.57 ± 3.54 ×10^−6 cm/s
- W (cumulative permeable percentage) ([8]; colon, 112 μM): 5.18 ± 1.22%
- Papp ([8]; ileum, 28 μM): 6.17 ± 2.17 ×10^−6 cm/s
- W (cumulative permeable percentage) ([8]; ileum, 28 μM): 3.55 ± 1.50%
- Papp ([8]; ileum, 56 μM): 6.77 ± 2.32 ×10^−6 cm/s
- W (cumulative permeable percentage) ([8]; ileum, 56 μM): 4.23 ± 1.38%
- Papp ([8]; ileum, 112 μM): 8.90 ± 1.65 ×10^−6 cm/s
- W (cumulative permeable percentage) ([8]; ileum, 112 μM): 5.27 ± 2.31%
- Papp ([8]; jejunum, 28 μM): 7.68 ± 2.04 ×10^−6 cm/s
- W (cumulative permeable percentage) ([8]; jejunum, 28 μM): 4.44 ± 1.98%
- Papp ([8]; jejunum, 56 μM): 8.36 ± 3.11 ×10^−6 cm/s
- W (cumulative permeable percentage) ([8]; jejunum, 56 μM): 4.92 ± 1.12%
- Papp ([8]; jejunum, 112 μM): 10.42 ± 2.58 ×10^−6 cm/s
- W (cumulative permeable percentage) ([8]; jejunum, 112 μM): 5.77 ± 1.70%
